# Measurements taken from patent US20250268980A1, “AN ANTICANCER THERAPY TARGETING RAS AND OTHER ONCOGENIC SIGNALS BY INHIBITION OF DYNAMIC BLEBBING AND/OR SEPTINS” (THE BOARD OF REGENTS OF THE UNIVERSITY OF TEXAS SYSTEM, priority 2022, published 2025).
# What was measured:
# Type in all cases: cell-based, human
# MV3 cells = experiment: Detached/adhered viability assay, ethidium homodimer staining, MV3; details: for cell death: 24 hours of WGA
# Protocol: (§1) Bleb formation was inhibited using wheat germ agglutinin (WGA), a lectin that reduces plasma membrane deformability by crosslinking components of the glycocalyx. […] To investigate putative bleb function as a driver of anchorage-independent cell survival assays were designed that consistently minimized both cell-substrate and cell-cell attachment over a period of 24 hours. This was accomplished by seeding cells at very low density (approx. 250 or 100 cells/ml) in non-adherent culture dishes under constant gentle agitation. For controls, cells were grown at identical concentrations in adherent variants of the same culture dishes. Together, this generated pairs of ‘detached’ and ‘adhered’ cell populations in paired same-day experiments.
# Detached/Adhered Cell Culture. […] Drug treatments, solvent-only controls, or CellEvent caspase activity sensor were added to suspensions if appropriate to the experiment, and then immediately transferred to both an uncoated (for detached cells) and ibiTreated (for adhered cells) 8-well ibidi u-slide (ibidi cat #80821 and 80826) at 200 μl/well. Both slides were stored at 37° C. and 5% CO2 for either 24 hours (hrs) for viability assays, 3 hrs for ERK activity assays or 4 hours for caspase activation assays. Uncoated slides (detached) were nutated at 20 rpm during this time. […] For experiments using MAPKi A375 cells, Dabrafenib and Trametinib treatment was continued over the course of the experiment. […]
# Viability, ERK Activity, and Caspase ActivityCell Counting Assays. Viability, ERK activity, and caspase activity assays were analyzed using live-cell fluorescent and phase-contrast microscopy, performed on a Nikon Ti microscope equipped with an environmental chamber held at 37° C. and 5% CO2 at 20× magnification. […] Live and dead cells (as identified by significant cellular ethidium signal) were counted using the Cell Counter ImageJ plugin. For ERK activity assays, live cells carrying ERK-nKTR-GFP and H2B-mCherry were imaged after 3 hours of experimental conditions and high/low ERK activity cells were counted with Cell Counter ImageJ plugin. […]
# M498 cells = experiment: Detached/adhered viability assay, ethidium homodimer staining, M498; details: for cell death: 24 hours of WGA
# Protocol: as §1
# Detached/Adhered Cell Culture. […] Drug treatments, solvent-only controls, or CellEvent caspase activity sensor were added to suspensions if appropriate to the experiment, and then immediately transferred to both an uncoated (for detached cells) and ibiTreated (for adhered cells) 8-well ibidi u-slide (ibidi cat #80821 and 80826) at 200 μl/well. Both slides were stored at 37° C. and 5% CO2 for either 24 hours (hrs) for viability assays, 3 hrs for ERK activity assays or 4 hours for caspase activation assays. Uncoated slides (detached) were nutated at 20 rpm during this time. […]
# Viability, ERK Activity, and Caspase ActivityCell Counting Assays. Viability, ERK activity, and caspase activity assays were analyzed using live-cell fluorescent and phase-contrast microscopy, performed on a Nikon Ti microscope equipped with an environmental chamber held at 37° C. and 5% CO2 at 20× magnification. […] Live and dead cells (as identified by significant cellular ethidium signal) were counted using the Cell Counter ImageJ plugin. For ERK activity assays, live cells carrying ERK-nKTR-GFP and H2B-mCherry were imaged after 3 hours of experimental conditions and high/low ERK activity cells were counted with Cell Counter ImageJ plugin. […] Caspase positive and negative cells (as identified by significant cellular CellEvent signal) were counted using the Cell Counter ImageJ plugin.
# PI3K = PI3K activity with Akt-PH-GFP biosensor in MV3 cells; details: rounded, poorly-adhered MV3 cells
# Protocol: Cells Embedded in 3D Collagen.
# Cells Grown in VitroGel Coffins. VitroGel coffins were prepared by embedding MV3 or A375 cells in VitroGel 3D or RGD at 1:1 dilution according to manufacturer's instructions (TheWell Biosciences, sku #TWG001). […] A 1:1 solution of VitroGel and VitroGel Dilution Solution was made and added to cell suspension at a ratio of 4:1 (VitroGel: cells) using gentle pipetting until well-mixed (with care taken not to form bubbles). Cell/VitroGel solution was transferred to an 8-well uncoated ibidi μ-slide (ibidi cat #80821) at 100 μl/well, spread over the bottom of wells with a pipette tip, and allowed to polymerize at room temperature for 15 minutes. […]
# Cortical septin levels were quantified by measuring the mean cytoplasmic intensity of each cell using hand-drawn ROIs that excluded nuclei (performed with the FIJI ImageJ package), and then calculating for each cell its fraction of cortical voxels (intracellular voxels within 0.96 μm of the u-Shape3D-derived surface) that were higher than that cell's mean cytoplasmic intensity (performed using a MATLAB script). […] To quantify PI3K biosensor fluorescence signal, cells were segmented with u-shape3D and the intracellular signal was summed across the z-axis to yield a sum projection image (performed with the FIJI ImageJ package). […]
compound,measurement,setting,value
"O=C(Nc1ccccc1)Nc1ccnc(Cl)c1 [FCF, forchlorfenuron]",anoikis resistance (cell death adhered vs detached),"MV3 cells; MV3, 50 μM FCF, 24 hours",greatly disrupted anoikis resistance
same,anoikis resistance (cell death adhered vs detached),"M498 cells; M498, 50 μM FCF, 24 hours",greatly disrupted anoikis resistance
same,PI3K activity,PI3K,PI3K activity fell significantly
wheat germ agglutinin [WGA],cell death,MV3 cells; adhered MV3 cells,little to none
same,cell death,MV3 cells; detached MV3 cells,high levels of cell death
same,cell death,M498 cells; adhered M498 cells,die upon WGA treatment
same,cell death,M498 cells; detached M498 cells,significantly more death
